{
  "source": "patent US10508309B2",
  "about": "“Methods for detecting and treating variants of seborrheic keratoses” (THE GENERAL HOSPITAL CORPORATION, priority 2013, dated 2019)",
  "system": "SK",
  "assay": "Response to A44/puro (summary of features for KA, SK, and SCC)",
  "settings": "seborrheic keratosis (SK) column; the KA and SCC cells print \"?\"",
  "data": [
    {"smiles": "COc1ccc(C[C@H](N)C(=O)N[C@H]2[C@@H](O)[C@H](n3cnc4c(N(C)C)ncnc43)O[C@@H]2CO)cc1", "note": "[puro, puromycin]", "values": [
      {"measurement": "Response to A44/puro?", "value": "Yes"}
    ]}
  ]
}
